Holding throughout (details): in vivo
Data set [1] can be described thus: Biodistribution in eye of mouse B16F0 cells implanted C57BL/6J mouse assessed per gram of tissue at 0.4 to 5.5 MBq, iv after 0.5 hrs by gamma counter. In kind it is ADME, organism-based.
Data set [2] can be described thus: Biodistribution in tumor of mouse B16F0 cells implanted C57BL/6J mouse assessed per gram of tissue at 0.4 to 5.5 MBq, iv after 6 hrs by gamma counter. In kind it is ADME, organism-based, Neoplasm.
Data set [3] in a line: Biodistribution in tumor of mouse B16F0 cells implanted C57BL/6J mouse assessed per gram of tissue at 0.4 to 5.5 MBq, iv after 0.25 hrs by gamma counter. In kind it is ADME, organism-based, Neoplasm.
For data set [4], the system named is Intestine. Kind of data set: Biodistribution in intestine of mouse B16F0 cells implanted C57BL/6J mouse assessed per gram of tissue at 0.4 to 5.5 MBq, iv after 6 hrs by gamma counter. In kind it is ADME, organism-based.
Data set [5] relates to Intestine. Briefly: Biodistribution in intestine of mouse B16F0 cells implanted C57BL/6J mouse assessed per gram of tissue at 0.4 to 5.5 MBq, iv after 3 hrs by gamma counter. In kind it is ADME, organism-based.
The subject of data set [6] is Intestine. Briefly: Biodistribution in intestine of mouse B16F0 cells implanted C57BL/6J mouse assessed per gram of tissue at 0.4 to 5.5 MBq, iv after 0.25 hrs by gamma counter. In kind it is ADME, organism-based.
For data set [7], the system named is Stomach. Kind of data set: Biodistribution in stomach of mouse B16F0 cells implanted C57BL/6J mouse assessed per gram of tissue at 0.4 to 5.5 MBq, iv after 6 hrs by gamma counter. In kind it is ADME, organism-based.
For data set [8], the system named is Stomach. Kind of data set: Biodistribution in stomach of mouse B16F0 cells implanted C57BL/6J mouse assessed per gram of tissue at 0.4 to 5.5 MBq, iv after 0.25 hrs by gamma counter. In kind it is ADME, organism-based.
Another data set deals with Thyroid gland. Kind of data set: Biodistribution in thyroid of mouse B16F0 cells implanted C57BL/6J mouse assessed per gram of tissue at 0.4 to 5.5 MBq, iv after 2 hrs by gamma counter. In kind it is ADME, organism-based.
In another data set the test system is Spleen. Kind of data set: Biodistribution in spleen of mouse B16F0 cells implanted C57BL/6J mouse assessed per gram of tissue at 0.4 to 5.5 MBq, iv after 0.5 hrs by gamma counter. In kind it is ADME, organism-based.
The next data set concerns Lung. Briefly: Biodistribution in lung of mouse B16F0 cells implanted C57BL/6J mouse assessed per gram of tissue at 0.4 to 5.5 MBq, iv after 0.5 hrs by gamma counter. In kind it is ADME, organism-based.
Data set [9] can be described thus: Biodistribution in eye of mouse B16F0 cells implanted C57BL/6J mouse assessed per gram of tissue at 0.4 to 5.5 MBq, iv after 6 hrs by gamma counter. In kind it is ADME, organism-based.
Data set [10] can be described thus: Biodistribution in eye of mouse B16F0 cells implanted C57BL/6J mouse assessed per gram of tissue at 0.4 to 5.5 MBq, iv after 2 hrs by gamma counter. In kind it is ADME, organism-based.

Data on one compound can be found in ChEMBL document CHEMBL1152441, “Discovery of [18F]N-(2-(diethylamino)ethyl)-6-fluoronicotinamide: a melanoma positron emission tomography imaging radiotracer with high tumor to body contrast ratio and rapid renal clearance” (J Med Chem, 2009).

In the case of `CCN(CC)CCNC(=O)c1ccc([18F])nc1`, the Drug uptake came to 16% in data set [1]; 7.7% in data set [2]; 7% in data set [3]; 0.13% in the data set with Intestine [4]; 0.54% in the data set on Intestine [5]; 5.4% with Intestine [6]. Also, the Drug uptake in the data set on Stomach [7] is recorded as 0.19%; in the data set with Stomach [8], 9.4%; in the data set on Thyroid gland, 0.61%; in the data set on Spleen it was 7.2%; with Lung, 2.9%; in [9], 15.6%. In [10], the Drug uptake is reported as 17.3%.
